Data as given in patent US20240240226A1, “FLUOROGENIC ASSAY FOR RAPID SCREENING OF BACTERIAL BETA-LACTAMASE ACTIVITY” (The Board of Trustees of the Leland Stanford Junior …, priority 2021, published 2024).
Where “and” joins values, the source holds several entries; their conditions need not be identical. Equal values may be shown once.

Columns and labels:
[1] = tested on: K. pneumoniae; assay: Two-step filtration CDA/H2O2 urine assay, negative control K. pneumoniae; format: cell-based; settings: K. pneumoniae without β-lactamase, concentrated from urine
Procedure: FIG. 4 illustrates the detection of lactam-resistant bacteria in urine samples. a) Illustration of the workflow in bacteria isolation and concentration from a urine sample for detection. The sample is first filtrated by a 5-μm filter to trap cells and large debris followed by a 0.22-μm filter to trap bacteria. The 0.22-μm filter is washed once before PBS/H2O2 (1 mM) is directed through the 0.22-μm filter in the opposite direction with a new syringe to recover the concentrated bacteria for detection in a plate reader. b) Longitudinal monitoring of fluorescence enhancement with CDA and concentrated E. coli, K. pneumoniae, K. pneumoniae/KPC, E. coli/TEM-1, E. coli/IMP-1, E. coli/KPC-3, E. cloacae/IMP, S. marcescens/SME, and E. coli/OXA-48 in the presence of H2O2 (1 mM). Star* indicate clinical isolates. The study was duplicated at room temperature with PBS as the buffer. The signal of CDA alone in PBS containing H2O2 (1 mM) was subtracted and the absolute values were plotted. The working concentration of CDA was 10 μM. Data were collected on a Tecan Safire microplate reader with excitation at 570 nm and emission at 600 nm. A.U. indicates arbitrary units. […]

[2] = tested on: esterase; assay: Response of CDA to H2O2 with esterases alone; format: biochemical
[3] = tested on: β-lactamase producing bacteria; assay: Two-step filtration CDA/H2O2 assay of bacteria in synthetic urine; format: cell-based, E. coli, K. pneumoniae, E. cloacae, S. marcescens; settings: for bacteria concentration in urine detectable: two-step filtration, 250-fold enrichment, H2O2 1 mM
Procedure: FIG. 4 illustrates the detection of lactam-resistant bacteria in urine samples. a) Illustration of the workflow in bacteria isolation and concentration from a urine sample for detection. The sample is first filtrated by a 5-μm filter to trap cells and large debris followed by a 0.22-μm filter to trap bacteria. The 0.22-μm filter is washed once before PBS/H2O2 (1 mM) is directed through the 0.22-μm filter in the opposite direction with a new syringe to recover the concentrated bacteria for detection in a plate reader. b) Longitudinal monitoring of fluorescence enhancement with CDA and concentrated E. coli, K. pneumoniae, K. pneumoniae/KPC, E. coli/TEM-1, E. coli/IMP-1, E. coli/KPC-3, E. cloacae/IMP, S. marcescens/SME, and E. coli/OXA-48 in the presence of H2O2 (1 mM). Star* indicate clinical isolates. The study was duplicated at room temperature with PBS as the buffer. The signal of CDA alone in PBS containing H2O2 (1 mM) was subtracted and the absolute values were plotted. The working concentration of CDA was 10 μM. Data were collected on a Tecan Safire microplate reader with excitation at 570 nm and emission at 600 nm. A.U. indicates arbitrary units.
To develop an easy-to-use, point-of-care assay for screening cephalosporin and carbapenem resistance, a simple two-step filtration method was employed (FIG. 26) to prepare and concentrate pathogenic bacteria, similar to a procedure applied for improving culture-based AST previously (Avesar et al., Procs. Nat. Acad. Sci. U.S.A, 2017, 114, E5787-E5795). […] The 5-micron filter would trap particles including cells and large debris, and bacteria would be collected by the 0.22-micron filter and washed by PBS. A reverse elution with PBS containing 1 mM H2O2 allowed immediate high-throughput analysis by a plate reader in a 96-well plate precoated with CDA. […] 50 mL of synthetic urine spiked with bacteria could be concentrated to approximately 200 μL ready-to-use suspension within a few minutes; polypropylene filters recover bacteria more efficiently (>90%) than commonly used nylon filters (FIG. 27). […]

CC(=O)Oc1ccc2c(c1)Oc1cc(OC(C)=O)ccc1N2C(=O)OCc1ccc(SCC2=C(C(=O)O)N3C(=O)[C@@H](NC(=O)Cc4ccccc4)[C@H]3SC2)cc1 [CDA, 3-(((4-(((3,7-diacetoxy-10H-phenoxazine-10-carbonyl)oxy)methyl)phenyl)thio)methyl)-8-oxo-7-(2-phenylacetamido)-5-thia-1-azabicyclo[4.2.0]oct-2-ene-2-carboxylic acid]
fluorescent signal of negative control [1]: almost undetectable
change of the response of CDA to H2O2 [2]: barely changed
fluorescent signal over time ([3]; all β-lactamase producing bacteria, after 250-fold enrichment): time dependent increase of fluorescent signal
bacteria concentration in urine detectable ([3]; within 1 hour): 10^5 c.f.u./mL
bacteria concentration in urine detectable ([3]; within 2 hours, room temperature): 10^3 c.f.u./mL and 10^4 c.f.u./mL
